Measurements as given in ChEMBL document CHEMBL3045806, “Antimicrobial, analgesic, DPPH scavenging activities and molecular docking study of some 1,3,5-triaryl-2-pyrazolines” (2012).
Converted amounts (≈) assume the structure as drawn.

Columns and labels:
Format in all cases: functional
[1] = Antioxidant activity assessed as DPPH scavenging activity at 10 ug/ml after 30 min by UV-visible spectrophotometry
Candida albicans [2] = assay: Antimicrobial activity against Candida albicans at 40 ug/ml after 72 hr by agar well diffusion method; settings: read-out: IZ
Aspergillus niger [3] = assay: Antimicrobial activity against Aspergillus niger at 40 ug/ml after 72 hr by agar well diffusion method; settings: read-out: IZ
Klebsiella pneumoniae [4] = assay: Antimicrobial activity against Klebsiella pneumoniae at 40 ug/ml after 24 hr by agar well diffusion method; settings: read-out: IZ
Klebsiella pneumoniae [5] = assay: Antimicrobial activity against Klebsiella pneumoniae after 24 hr by micro dilution method
Streptococcus pyogenes [6] = assay: Antimicrobial activity against Streptococcus pyogenes after 24 hr by micro dilution method
Mus musculus = assay: Analgesic activity in Mus musculus Swiss albino (mouse) assessed as protection against acetic acid-induced writhing at 100 mg/kg, po administered 1 hr prior challenge measured after 5 min of challenge for 20 min
Aspergillus niger [7] = assay: Antimicrobial activity against Aspergillus niger after 24 hr by micro dilution method
Bacillus subtilis [8] = assay: Antimicrobial activity against Bacillus subtilis after 24 hr by micro dilution method
Streptococcus pyogenes [9] = assay: Antimicrobial activity against Streptococcus pyogenes at 40 ug/ml after 24 hr by agar well diffusion method; settings: read-out: IZ
Pseudomonas aeruginosa [10] = assay: Antimicrobial activity against Pseudomonas aeruginosa after 24 hr by micro dilution method
Candida albicans [11] = assay: Antimicrobial activity against Candida albicans after 24 hr by micro dilution method
Pseudomonas aeruginosa [12] = assay: Antimicrobial activity against Pseudomonas aeruginosa at 40 ug/ml after 24 hr by agar well diffusion method; settings: read-out: IZ
Bacillus subtilis [13] = assay: Antimicrobial activity against Bacillus subtilis at 40 ug/ml after 24 hr by agar well diffusion method; settings: read-out: IZ

Structure (SMILES)	Activity [1] [%]	zone of inhibition at 40 µg/mL (Candida albicans [2]) [mm]	zone of inhibition at 40 µg/mL (Aspergillus niger [3]) [mm]	zone of inhibition at 40 µg/mL (Klebsiella pneumoniae [4]) [mm]	MIC (Klebsiella pneumoniae [5]) [µg/mL]	MIC (Streptococcus pyogenes [6]) [µg/mL]	Activity (Mus musculus) [%]	MIC (Aspergillus niger [7]) [µg/mL]	MIC (Bacillus subtilis [8]) [µg/mL]	zone of inhibition at 40 µg/mL (Streptococcus pyogenes [9]) [mm]	MIC (Pseudomonas aeruginosa [10]) [µg/mL]	MIC (Candida albicans [11]) [µg/mL]	zone of inhibition at 40 µg/mL (Pseudomonas aeruginosa [12]) [mm]	zone of inhibition at 40 µg/mL (Bacillus subtilis [13]) [mm]
O=C1O[C@H]([C@@H](O)CO)C(O)=C1O	69.2	–	–	–	–	–	–	–	–	–	–	–	–	–
OC(Cn1cncn1)(Cn1cncn1)c1ccc(F)cc1F [FLUCONAZOLE]	–	23	24	–	–	–	–	–	–	–	–	–	–	–
Brc1ccc(C2=NN(c3ccccc3)C(c3ccc(Br)cc3)C2)cc1 (stereo unspecified)	40.3	20	20	21	40 (≈ 87.7 µM)	40 (≈ 87.7 µM)	53.75	40 (≈ 87.7 µM)	40 (≈ 87.7 µM)	21	30 (≈ 65.8 µM)	20 (≈ 43.8 µM)	22	23
Fc1ccc(C2=NN(c3ccccc3)C(c3ccc(F)cc3)C2)cc1 (stereo unspecified)	51.2	20	20	22	30 (≈ 89.7 µM)	30 (≈ 89.7 µM)	49.65	40 (≈ 120 µM)	30 (≈ 89.7 µM)	23	40 (≈ 120 µM)	40 (≈ 120 µM)	20	21
CC(=O)Oc1ccccc1C(=O)O [ASPIRIN]	–	–	–	–	–	–	58.25	–	–	–	–	–	–	–
Clc1ccc(C2=NN(c3ccccc3)C(c3ccc(Cl)cc3)C2)cc1 (stereo unspecified)	31.8	21	22	20	30 (≈ 81.7 µM)	30 (≈ 81.7 µM)	50	30 (≈ 81.7 µM)	30 (≈ 81.7 µM)	24	30 (≈ 81.7 µM)	30 (≈ 81.7 µM)	21	22
c1ccc(C2=NN(c3ccccc3)C(c3ccccc3)C2)cc1 (stereo unspecified)	23.1	21	23	23	40 (≈ 134 µM)	40 (≈ 134 µM)	57.8	30 (≈ 101 µM)	40 (≈ 134 µM)	23	30 (≈ 101 µM)	30 (≈ 101 µM)	22	23
COc1ccc(C2=NN(c3ccccc3)C(c3ccc(OC)cc3)C2)cc1 (stereo unspecified)	39.6	20	21	22	30 (≈ 83.7 µM)	40 (≈ 112 µM)	58.74	30 (≈ 83.7 µM)	40 (≈ 112 µM)	23	30 (≈ 83.7 µM)	40 (≈ 112 µM)	24	21
c1ccc(-c2ccc(C3=NN(c4ccccc4)C(c4ccc(-c5ccccc5)cc4)C3)cc2)cc1 (stereo unspecified)	18.2	21	22	23	30 (≈ 66.6 µM)	40 (≈ 88.8 µM)	53.1	40 (≈ 88.8 µM)	40 (≈ 88.8 µM)	21	30 (≈ 66.6 µM)	40 (≈ 88.8 µM)	22	23
Cc1ccc(C2=NN(c3ccccc3)C(c3ccc(C)cc3)C2)cc1 (stereo unspecified)	22.4	22	24	24	30 (≈ 91.9 µM)	20 (≈ 61.3 µM)	58.16	40 (≈ 123 µM)	30 (≈ 91.9 µM)	22	40 (≈ 123 µM)	30 (≈ 91.9 µM)	23	20
O=C(O)c1cn(C2CC2)c2cc(N3CCNCC3)c(F)cc2c1=O [CIPROFLOXACIN]	–	–	–	24	–	–	–	–	–	24	–	–	24	24
